According to patent US4962109A, “Insecticidally and acaricidally active pyrimidine esters and intermediates therefor” (Imperial Chemical Industries PLC, priority 1985, dated 1990):
Read-outs that look alike come from different tables or passages of the source.

Columns and labels:
Type in all cases: in vivo
[1] = tested on: Musca domestica (houseflies - adults); experiment: Knockdown test on houseflies - adults (MD/KD), Cotton wool/sugar; conditions: 500 ppm, 4 hours, read-out: MD/KD grading of knockdown
Method: (§1) The activity of the Product was determined using a variety of insect pests. The Product was used in the form of liquid preparations containing 500, 250 or 100 parts per million (ppm) by weight of the Product. The preparations were made by dissolving the Product in acetone and diluting the solutions with water containing 0.01% by weight of a wetting agent sold under the trade name "LISSAPOL" NX until the liquid preparations contained the required concentration of the Product. "Lissapol" is a Registered Trade Mark.
(§2) The test procedure adopted with regard to each pest was basically the same and comprised supporting a number of the pests on a medium which was usually a host plant or a foodstuff on which the pests feed, and treating either or both the pests and the medium with the preparations. The mortality of the pests was then assessed at periods usually varying from one to three days after the treatment.
In the case of the species Musca domestica (housefly), additional tests to determine the knockdown effect of the compounds were performed. PG,163
(§3) The results of the tests are given in Table III for each of the Products, at the rate in parts per million given in the second column as a grading of mortality designated as A, B or C wherein A indicates 80-100% mortality or knockdown, B indicates 50-79% mortality or knockdown and C indicates less than 50% mortality or knockdown.

[2] = tested on: Heliothis virescens (tobacco budworm - larvae); experiment: Residual test on tobacco budworm larvae (HV), Cotton leaf, mortality; conditions: 48 h, read-out: HV grading of mortality
Method: as §1, §2, §3
(tobacco budworm - larvae)

[3] = tested on: Myzus persicae (aphids); experiment: Contact test on aphids (MP), Chinese Cabbage leaf, mortality; conditions: 72 h, read-out: MP grading of mortality
Method: as §1, §2, §3

[4] = tested on: Nephotettix cincticeps (green leaf hopper - nymphs); experiment: Contact test on green leaf hopper nymphs (NC), Rice plant, mortality; conditions: 48 h, read-out: NC grading of mortality
Method: as §1, §2, §3
NC Nephotettix cincticeps

[5] = tested on: Diabrotica balteata (rootworm larvae); experiment: Residual test on rootworm larvae (DB), Filter paper/maize seed, mortality; conditions: 48 h, read-out: DB grading of mortality
Method: as §1, §2, §3

[6] = tested on: Blattella germanica (cockroach nymphs); experiment: Contact test on cockroach nymphs (BG/C), Plastic pot, mortality; conditions: 48 h, read-out: BG/C grading of mortality
Method: as §1, §2, §3
BG/C Blattella germanica

[7] = tested on: Tetranychus urticae (spider mites - ova); experiment: Contact test on spider mites - ova (TUe), French bean leaf, mortality; conditions: 144 h, read-out: TUe grading of mortality
Method: as §1, §2, §3

[8] = tested on: Musca domestica (houseflies - adults); experiment: Contact test on houseflies - adults (MD), Cotton wool/sugar, mortality; conditions: 72 h, read-out: MD grading of mortality
Method: as §1, §2, §3

[9] = tested on: Spodoptera exigua (lesser army worm - larvae); experiment: Residual test on lesser army worm larvae (SP), Cotton leaf, mortality; conditions: 48 h, read-out: SP grading of mortality
Method: as §1, §2, §3
(lesser army worm - larvae)

[10] = tested on: Tetranychus urticae (spider mites - adult); experiment: Contact test on spider mites - adult (TUa), French bean leaf, mortality; conditions: 72 h, read-out: TUa grading of mortality
Method: as §1, §2, §3

Row | Structure (SMILES) | pest or weed control at 500 ppm [1] [%] | mortality at 500 ppm [2] [%] | mortality at 500 ppm ([3]; 500 ppm, contact, 3 days) [%] | mortality at 500 ppm ([4]; 500 ppm, contact, 2 days) [%] | mortality at 500 ppm ([5]; 500 ppm, residual, 2 days) [%] | mortality at 500 ppm ([6]; 500 ppm, contact, 2 days) [%] | mortality at 500 ppm ([7]; 500 ppm, contact, 6 days) [%] | mortality at 500 ppm ([8]; 500 ppm, contact, 3 days) [%] | mortality at 500 ppm ([9]; 500 ppm, residual, 2 days) [%] | mortality at 500 ppm ([10]; 500 ppm, contact, 3 days) [%] | mortality at 500 ppm [3] [%] | mortality at 500 ppm [4] [%] | mortality at 500 ppm [5] [%] | mortality at 500 ppm [6] [%] | mortality at 500 ppm [7] [%] | mortality at 500 ppm [8] [%] | mortality at 500 ppm [9] [%] | mortality at 500 ppm [10] [%]
1 | CCOC(=O)c1c(F)c(F)c(COC(=O)C(c2cnc(C(C)(C)C)nc2)C(C)(C)C)c(F)c1F (racemic) [Compound 170] | 50 to 79 | < 50 | < 50 | 50 to 79 | < 50 | < 50 | < 50 | < 50 | 80 to 100 | 80 to 100 |  |  |  |  |  |  |  | 
2 | C=CC(C)(C)C(C(=O)OCc1c(F)c(F)c(COC)c(F)c1F)c1cnc(C(C)(C)C)nc1 (racemic) [Compound 211, 4-(methoxymethyl)-2,3,5,6-tetrafluorobenzyl (RS)-2-[2-(1,1-dimethylethyl)pyrimidin-5-yl]-3,3-dimethylpent-4-enoate] | 80 to 100 | < 50 | 80 to 100 | 80 to 100 | < 50 | < 50 | 80 to 100 | < 50 | 80 to 100 | 80 to 100 |  |  |  |  |  |  |  | 
3 | CC(C)(C)c1ncc(C(C(=O)OCc2cccc(Oc3ccccc3)n2)C(C)(C)C)cn1 (racemic) [Compound 9, (6-phenoxypyrid-2-yl)methyl (RS)-2-[2-(1,1-dimethylethyl)pyrimidin-5-yl]-3,3-dimethylbutanoate] | 80 to 100 | 80 to 100 | 80 to 100 | 80 to 100 | 50 to 79 | 50 to 79 | 80 to 100 | 80 to 100 | 80 to 100 | 80 to 100 |  |  |  |  |  |  |  | 
4 | CC(=O)OCc1c(F)c(F)c(COC(=O)C(c2cnc(C(C)(C)C)nc2)C(C)(C)C)c(F)c1F (racemic) [Compound 166, 2,3,5,6-tetrafluoro-4-(acetyloxymethyl)benzyl (RS)-2-[2-(1,1-dimethylethyl)pyrimidin-5-yl]-3,3-dimethylbutanoate] | < 50 | < 50 | 80 to 100 | 50 to 79 | 80 to 100 | < 50 | 80 to 100 | < 50 | 80 to 100 | 80 to 100 |  |  |  |  |  |  |  | 
5 | CC(C)OC(=O)c1c(F)c(F)c(COC(=O)C(c2cnc(C(C)(C)C)nc2)C(C)(C)C)c(F)c1F (racemic) [Compound 171, 4-[(prop-2-yl)oxycarbonyl]-2,3,5,6-tetrafluorobenzyl (RS)-2-[2-(1,1-dimethylethyl)pyrimidin-5-yl]-3,3-dimethylbutanoate] | < 50 | < 50 | < 50 | < 50 | < 50 | < 50 | < 50 | < 50 | < 50 | 80 to 100 |  |  |  |  |  |  |  | 
6 | CC(C)(C)c1ncc(C(C(=O)OCc2c(F)cccc2Cl)C(C)(C)C)cn1 (racemic) [Compound 26, 2-chloro-6-fluorobenzyl (RS)-2-[2-(1,1-dimethylethyl)pyrimidin-5-yl]-3,3-dimethylbutanoate] | 80 to 100 | < 50 | 50 to 79 | 80 to 100 | 80 to 100 | < 50 | 80 to 100 | 80 to 100 | 80 to 100 | 80 to 100 |  |  |  |  |  |  |  | 
7 | C=CCc1c(F)c(F)c(COC(=O)C(c2cnc(C(C)(C)C)nc2)C(C)(C)C)c(F)c1F (racemic) [Compound 5, 4-(prop-2-en-1-yl)-2,3,5,6-tetrafluorobenzyl (RS)-2-[2-(1,1-dimethylethyl)pyrimidin-5-yl]-3,3-dimethylbutanoate] | 50 to 79 | 50 to 79 | 80 to 100 | 50 to 79 | < 50 | < 50 | < 50 | < 50 | 80 to 100 | 80 to 100 |  |  |  |  |  |  |  | 
8 | CC[Si](CC)(CC)CCCc1c(F)c(F)c(COC(=O)C(c2cnc(C(C)(C)C)nc2)C(C)(C)C)c(F)c1F (racemic) [Compound 218, 4-[3-(triethylsilyl)prop-1-yl]-2,3,5,6-tetrafluorobenzyl (RS)-2-[2-(1,1-dimethylethyl)pyrimidin-5-yl]-3,3-dimethylbutanoate] | < 50 | < 50 |  |  |  |  |  |  |  |  | 80 to 100 | 80 to 100 | < 50 | < 50 | < 50 | < 50 | < 50 | 80 to 100
9 | CC(OC(=O)C(c1cnc(C2CC2)nc1)C(C)(C)C)c1cccc(Oc2ccccc2)n1 (racemic) [Compound 78, RS-1-(6-phenoxypyrid-2-yl)ethyl (RS)-2-(2-cyclopropylpyrimidin-5-yl)-3,3-dimethylbutanoate] | 80 to 100 | 80 to 100 | 80 to 100 | 80 to 100 | 80 to 100 | 50 to 79 | 50 to 79 | < 50 | 80 to 100 | 80 to 100 |  |  |  |  |  |  |  | 
10 | CC(C)(C)c1ncc(C(C(=O)OCc2c(F)c(F)c(F)c(F)c2F)C(C)(C)C)cn1 (racemic) [Compound 30, 2,3,4,5,6-pentafluorobenzyl (RS)-2-[2-(1,1-dimethylethyl)pyrimidin-5-yl]-3,3-dimethylbutanoate] | 80 to 100 | 80 to 100 | 80 to 100 | 80 to 100 | 80 to 100 | < 50 | < 50 | 80 to 100 | 80 to 100 | 80 to 100 |  |  |  |  |  |  |  | 
11 | C[C@@H](OC(=O)[C@@H](c1cnc(C(C)(C)C)nc1)C(C)(C)C)c1cccc(Oc2ccc(Cl)cc2)n1 (racemic) [Compound 181, (RS)-1-[6-(4-chlorophenoxy)pyrid-2-yl]ethyl (RS)-2-[2-(1,1-dimethylethyl)pyrimidin-5-yl]-3,3-dimethylbutanoate] | 80 to 100 | 80 to 100 | 80 to 100 | 80 to 100 | 80 to 100 | < 50 | < 50 | 80 to 100 | 80 to 100 | 80 to 100 |  |  |  |  |  |  |  | 
